Measured values: patent US20110130464A1, “Combination Agent for Improving Carcass Performance in Finishing Pigs” (IGENE BIOTECHNOLOGY, INC., priority 2008, published 2011)
Structures can show the parent of a compound that is named as a salt.

Assays:
finishing pigs [1] = experiment: Growth performance and carcass characteristics of finishing pigs fed astaxanthin with or without Paylean; type: in vivo; conditions: for ADFI (Average Daily Feed Intake) / ADG (Average Daily Gain) / F/G (Pounds of feed to gain one pound of weight) / G/F (Reciprocal of F/G): 26 d
Protocol: Procedures used in the experiment were approved by the Kansas State University (KSU) Animal Care and Use Committee. The project was conducted at the KSU Swine Teaching and Research Farm. Pigs were housed in an environmentally-regulated finishing building with pens over a totally slatted floor that provided approximately 8 ft^2 per pig. Each pen was equipped with a dry, self-feeder and one nipple waterer, providing ad libitum access to feed and water. The facility was a mechanically-ventilated room with a pull-plug, manure storage pit.
A total of 144 finishing pigs from a single group (72 barrows and 72 gilts) were utilized for the experiments. Pigs were blocked by weight and gender, and allotted to one of 9 dietary treatments for an average period of 27 days pre-harvest. Each pen served as an experimental unit, with 2 pigs/pen and 8 replications to provide 16 pigs per treatment.
Experimental diets were provided in meal form and astaxanthin (0, 5, 7.5 and 10 ppm) was added to the control diet at the expense of corn starch to achieve the dietary treatments (Table 1). Paylean® was added to the diets indicated to contain 10 ppm.
Pigs were weighed on day 0, 7, 14, 21, and ˜27 to calculate average daily gain, average daily feed intake, and feed efficiency. Upon completion of the collection of growth performance data, all pigs were euthanized and processed for the collection of standard carcass measurements (dressing percentage, 10th rib backfat depth, loin muscle area, etc.).
Data were analyzed as a randomized complete block design using the PROC MIXED procedure of SAS with pen as the experimental unit. Linear and quadratic polynomial contrasts were used to determine the effect of increasing astaxanthin, with and without addition of Paylean®.
The source of natural astaxanthin used in this example was the yeast Phaffia rhodozyma which is commercially available under the trade name Aquasta® containing 10000 ppm astaxanthin, by weight.

finishing pigs [2] = conditions: Yang et al., cited from earlier work
pigs = conditions: Trapp et al. 2002; cited from earlier work
[3] = 5 ppm astaxanthin in diet, without Paylean
[4] = 7.5 ppm astaxanthin in diet, without Paylean
[5] = 10 ppm astaxanthin in diet, without Paylean
[6] = 10 ppm Paylean, 0 ppm astaxanthin

CC1=C(/C=C/C(C)=C/C=C/C(C)=C/C=C/C=C(C)/C=C/C=C(C)/C=C/C2=C(C)C(=O)C(O)CC2(C)C)C(C)(C)CC(O)C1=O (stereo not drawn) [astaxanthin, 3,3′-dihydroxy-β,β-carotene-4,4′ dione]
BF-10th rib (Back Fat) (finishing pigs [1]; [3]): 0.84 in. | BF-avg. (Back Fat) (finishing pigs [1]; [3]): 1.12 in. | Body weight, Final (finishing pigs [1]; [3]): 287.6 lb | Carcass Yield (finishing pigs [1]; [3]): 70.4% | HCW (Hot Carcass Weight) (finishing pigs [1]; [3]): 202.6 lb | LEA-10th rib (Loin Eye Area) (finishing pigs [1]; [3]): 7.55 in^2 | PFFL (Percent Fat Free Lean, SFFL/HCW) (finishing pigs [1]; [3]): 52.8% | SFFL (Standard Fat Free Lean) (finishing pigs [1]; [3]): 107.1 lb | LEA (loin eye areas), average (finishing pigs [1]; 7.5 ppm astaxanthin alone): 7.36 square inches | increase of LEA over control pigs (finishing pigs [1]; 7.5 ppm astaxanthin alone vs diets without astaxanthin): 0.10 square inches | BF-10th rib (Back Fat) (finishing pigs [1]; [4]): 0.81 in. | BF-avg. (Back Fat) (finishing pigs [1]; [4]): 1.02 in. | Body weight, Final (finishing pigs [1]; [4]): 287.4 lb | Carcass Yield (finishing pigs [1]; [4]): 71.5% | HCW (Hot Carcass Weight) (finishing pigs [1]; [4]): 203.4 lb | LEA-10th rib (Loin Eye Area) (finishing pigs [1]; [4]): 7.36 in^2 | PFFL (Percent Fat Free Lean, SFFL/HCW) (finishing pigs [1]; [4]): 52.9% | SFFL (Standard Fat Free Lean) (finishing pigs [1]; [4]): 107.6 lb | BF-10th rib (Back Fat) (finishing pigs [1]; [5]): 0.77 in. | BF-avg. (Back Fat) (finishing pigs [1]; [5]): 1.04 in. | Body weight, Final (finishing pigs [1]; [5]): 286.2 lb | Carcass Yield (finishing pigs [1]; [5]): 70.8% | HCW (Hot Carcass Weight) (finishing pigs [1]; [5]): 202.5 lb | LEA-10th rib (Loin Eye Area) (finishing pigs [1]; [5]): 7.53 in^2 | PFFL (Percent Fat Free Lean, SFFL/HCW) (finishing pigs [1]; [5]): 53.7% | SFFL (Standard Fat Free Lean) (finishing pigs [1]; [5]): 108.6 lb | ADFI (Average Daily Feed Intake) (finishing pigs [1]; [3]): 8.06 lb | ADG (Average Daily Gain) (finishing pigs [1]; [3]): 2.34 lb | F/G (Pounds of feed to gain one pound of weight) (finishing pigs [1]; [3]): 3.44 | G/F (Reciprocal of F/G) (finishing pigs [1]; [3]): 0.29 | ADFI (Average Daily Feed Intake) (finishing pigs [1]; [4]): 8.03 lb | ADG (Average Daily Gain) (finishing pigs [1]; [4]): 2.45 lb | F/G (Pounds of feed to gain one pound of weight) (finishing pigs [1]; [4]): 3.28 | G/F (Reciprocal of F/G) (finishing pigs [1]; [4]): 0.31 | ADFI (Average Daily Feed Intake) (finishing pigs [1]; [5]): 8.01 lb | ADG (Average Daily Gain) (finishing pigs [1]; [5]): 2.41 lb | F/G (Pounds of feed to gain one pound of weight) (finishing pigs [1]; [5]): 3.35 | G/F (Reciprocal of F/G) (finishing pigs [1]; [5]): 0.30 | SFFL versus pigs fed a diet without astaxanthin (finishing pigs [1]; astaxanthin alone): no statistical difference | production performance (finishing pigs [2]; 0, 1.5 and 3.0 ppm astaxanthin in diet of finishing pigs): no significant effect | dressing percentage, back fat thickness and loin muscle area (finishing pigs [2]; increasing dietary astaxanthin level (0, 1.5, 3.0 ppm)): linear effect

CC(CCc1ccc(O)cc1)NCC(O)c1ccc(O)cc1 (stereo not drawn) [Paylean®, ractopamine hydrochloride, reference compound]
LEA (loin eye areas), average (finishing pigs [1]; 10 ppm Paylean alone): 8.29 square inches | increase of LEA over control pigs (finishing pigs [1]; 10 ppm Paylean alone vs control diet without astaxanthin or Paylean): 1.03 square inches | BF-10th rib (Back Fat) (finishing pigs [1]; [6]): 0.81 in. | BF-avg. (Back Fat) (finishing pigs [1]; [6]): 1.06 in. | Body weight, Final (finishing pigs [1]; [6]): 297.1 lb | Carcass Yield (finishing pigs [1]; [6]): 72.0% | HCW (Hot Carcass Weight) (finishing pigs [1]; [6]): 213.9 lb | LEA-10th rib (Loin Eye Area) (finishing pigs [1]; [6]): 8.29 in^2 | PFFL (Percent Fat Free Lean, SFFL/HCW) (finishing pigs [1]; [6]): 53.8% | SFFL (Standard Fat Free Lean) (finishing pigs [1]; [6]): 115.2 lb | SFFL (standard fat free lean) (finishing pigs [1]; 10 ppm Paylean, control 108.4 pounds): 115.2 pounds | ADFI (Average Daily Feed Intake) (finishing pigs [1]; [6]): 8.05 lb | ADG (Average Daily Gain) (finishing pigs [1]; [6]): 2.83 lb | F/G (Pounds of feed to gain one pound of weight) (finishing pigs [1]; [6]): 2.86 | G/F (Reciprocal of F/G) (finishing pigs [1]; [6]): 0.35 | hot carcass weight, dressing percent and loin eye area (pigs): increase
